Experimental data published in ChEMBL document CHEMBL1125324, “Development of a novel class of cyclic hexapeptide oxytocin antagonists based on a natural product” (J Med Chem, 1992).
Where a SMILES comes first, the peptide text is derived from it. [ ]: non-standard residue; d: D form. Piz(1,6-dehydro) = O=C(O)[C@@H]1CCC=NN1; dPiz(1,6-dehydro) = O=C(O)[C@H]1CCC=NN1; dNMeH = CN[C@H](Cc1c[nH]cn1)C(=O)O; dNMeF = CN[C@H](Cc1ccccc1)C(=O)O; Pip = O=C(O)[C@@H]1CCCCN1; dPip = O=C(O)[C@H]1CCCCN1; Nle = CCCC[C@H](N)C(=O)O; Orn = NCCC[C@H](N)C(=O)O

What was measured:
Vasopressin V2 receptor = Vasopressin V2 receptor (Rattus norvegicus, UniProt Q00788); experiment: Inhibition of [3H]arginine vasopressin binding to AVP-V2 site in rat kidney medulla.; assay type: tissue-based
Vasopressin V2 receptor, sequence (Q00788 whole entry): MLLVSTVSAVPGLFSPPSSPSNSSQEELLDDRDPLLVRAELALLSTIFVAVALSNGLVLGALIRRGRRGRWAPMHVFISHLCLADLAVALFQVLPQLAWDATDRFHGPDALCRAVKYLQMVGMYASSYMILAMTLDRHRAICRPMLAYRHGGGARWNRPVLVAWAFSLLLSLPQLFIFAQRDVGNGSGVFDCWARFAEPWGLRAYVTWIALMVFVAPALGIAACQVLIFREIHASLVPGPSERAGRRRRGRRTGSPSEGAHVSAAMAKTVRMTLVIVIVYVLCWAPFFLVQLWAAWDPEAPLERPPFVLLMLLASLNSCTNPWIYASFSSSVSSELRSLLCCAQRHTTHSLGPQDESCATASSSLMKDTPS

Oxytocin receptor = biological target: T1, Oxytocin receptor (Rattus norvegicus, UniProt P70536); experiment: Concentration required to displace 50% of [3H]oxytocin from rat uterine receptor.
T1 sequence (P70536 whole entry): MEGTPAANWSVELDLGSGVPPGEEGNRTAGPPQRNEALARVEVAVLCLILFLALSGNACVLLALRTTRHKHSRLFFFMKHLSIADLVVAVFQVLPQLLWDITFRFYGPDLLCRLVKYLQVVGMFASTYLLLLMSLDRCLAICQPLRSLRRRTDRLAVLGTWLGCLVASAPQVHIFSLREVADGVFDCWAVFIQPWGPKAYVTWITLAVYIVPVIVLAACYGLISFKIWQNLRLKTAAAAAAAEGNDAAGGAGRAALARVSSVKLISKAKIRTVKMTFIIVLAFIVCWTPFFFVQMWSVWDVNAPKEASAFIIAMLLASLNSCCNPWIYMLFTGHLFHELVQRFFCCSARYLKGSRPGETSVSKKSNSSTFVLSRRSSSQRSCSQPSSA

Vasopressin V1a receptor = Vasopressin V1a receptor (Rattus norvegicus, UniProt P30560); experiment: Concentration required to displace 50% of [3H]arginine vasopressin from rat liver arginine vasopressin 1A (AVP-V1a) site.
Vasopressin V1a receptor, sequence (P30560 whole entry): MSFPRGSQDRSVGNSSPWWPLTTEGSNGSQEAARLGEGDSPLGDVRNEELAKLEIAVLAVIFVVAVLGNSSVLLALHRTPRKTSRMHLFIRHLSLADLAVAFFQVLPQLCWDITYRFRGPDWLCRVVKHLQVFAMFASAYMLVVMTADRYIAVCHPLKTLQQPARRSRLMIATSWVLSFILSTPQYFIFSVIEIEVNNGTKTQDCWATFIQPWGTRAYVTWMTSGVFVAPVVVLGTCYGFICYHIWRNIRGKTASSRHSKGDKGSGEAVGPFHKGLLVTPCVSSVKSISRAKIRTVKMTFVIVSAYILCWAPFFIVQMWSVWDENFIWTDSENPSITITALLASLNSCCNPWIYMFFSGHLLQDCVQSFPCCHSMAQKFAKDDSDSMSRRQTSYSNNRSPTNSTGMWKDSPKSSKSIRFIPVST

## CC[C@H](C)[C@@H]1NC(=O)[C@@H](Cc2ccccc2)NC(=O)[C@@H]2CCCN2C(=O)[C@@H](Cc2ccccc2)NC(=O)[C@@H]2CCCCN2C(=O)[C@H]2CCCCN2C1=O (cyclo(I[dPip][Pip][dF]P[dF]))
Vasopressin V2 receptor
  IC50: 11000 nM
Oxytocin receptor
  IC50: 340 nM

## CC[C@H](C)[C@@H]1NC(=O)[C@@H](Cc2ccccc2)NC(=O)[C@@H]2CCCN2C(=O)[C@@H](Cc2ccccc2)N(C)C(=O)[C@H](CCCCN)NC(=O)[C@H]2CCCCN2C1=O
Vasopressin V2 receptor
  IC50: 1400 nM
Oxytocin receptor
  IC50: 160 nM
Vasopressin V1a receptor
  IC50: 2000 nM

## CC[C@H](C)[C@@H]1NC(=O)[C@@H](Cc2ccccc2)NC(=O)[C@@H]2CCCN2C(=O)[C@@H](Cc2ccccc2)N(C)C(=O)[C@@H]2CCCN2C(=O)[C@H]2CCCN2C1=O (cyclo([dNMeF]P[dF]I[dP]P))
Vasopressin V2 receptor
  IC50: 81000 nM
Vasopressin V1a receptor
  IC50: 3300 nM

## CC[C@H](C)[C@@H]1NC(=O)[C@@H](Cc2cccc3ccccc23)NC(=O)[C@@H]2CCCN2C(=O)[C@@H](Cc2ccccc2)N(C)C(=O)[C@H](CCCCN)NC(=O)[C@H]2CCCCN2C1=O
Vasopressin V2 receptor
  IC50: 150 nM
Oxytocin receptor
  IC50: 45 nM
Vasopressin V1a receptor
  IC50: 510 nM

## CC[C@H](C)[C@@H]1NC(=O)[C@@H](Cc2ccccc2)NC(=O)[C@@H]2CCCN2C(=O)[C@@H](Cc2ccccc2)N(C)C(=O)[C@H](Cc2cnc[nH]2)NC(=O)[C@H]2CCCCN2C1=O
Oxytocin receptor
  IC50: 220 nM

## CC[C@H](C)[C@@H]1NC(=O)[C@@H](Cc2cn(C)c3ccccc23)NC(=O)[C@@H]2CCCN2C(=O)[C@@H](Cc2cnc[nH]2)NC(=O)[C@@H]2CCCCN2C(=O)[C@H]2CCCCN2C1=O
Vasopressin V2 receptor
  IC50: 1300 nM
Oxytocin receptor
  IC50: 10 nM
Vasopressin V1a receptor
  IC50: 3700 nM

## CC(C)C[C@@H]1NC(=O)[C@@H](Cc2c[nH]c3ccccc23)NC(=O)[C@@H]2CCCN2C(=O)[C@@H](Cc2c[nH]cn2)NC(=O)[C@@H]2CCCCN2C(=O)[C@H]2CCCCN2C1=O (cyclo(L[dPip][Pip][dH]P[dW]))
Vasopressin V2 receptor
  IC50: 11000 nM
Vasopressin V1a receptor
  IC50: 3000 nM

## CC[C@H](C)[C@@H]1NC(=O)[C@@H](Cc2ccccc2)NC(=O)[C@@H]2CCCN2C(=O)[C@@H](Cc2ccccc2)N(C)C(=O)[C@@H]2CCCCN2C(=O)[C@H]2CCCCN2C1=O (cyclo(I[dPip][Pip][dNMeF]P[dF]))
Vasopressin V2 receptor
  IC50: 3800 nM
Oxytocin receptor
  IC50: 200 nM
Vasopressin V1a receptor
  IC50: 3200 nM

## CC[C@H](C)[C@@H]1NC(=O)[C@@H](Cc2c[nH]c3ccccc23)NC(=O)[C@@H]2CCCN2C(=O)[C@@H](Cc2ccccc2)N(C)C(=O)[C@H](CCCN)NC(=O)[C@H]2CCC=NN2C1=O (cyclo(I[dPiz(1,6-dehydro)][Orn][dNMeF]P[dW]))
Oxytocin receptor
  IC50: 25 nM

## CCCC[C@@H]1NC(=O)[C@@H](Cc2c[nH]c3ccccc23)NC(=O)[C@@H]2CCCN2C(=O)[C@@H](Cc2c[nH]cn2)NC(=O)[C@@H]2CCCCN2C(=O)[C@H]2CCCCN2C1=O (cyclo([Nle][dPip][Pip][dH]P[dW]))
Vasopressin V2 receptor
  IC50: 1700 nM
Vasopressin V1a receptor
  IC50: 1300 nM

## CC[C@H](C)[C@@H]1NC(=O)[C@@H](Cc2ccccc2)NC(=O)[C@@H]2CCCN2C(=O)[C@@H](Cc2ccccc2)N(C)C(=O)[C@@H]2CCCCN2C(=O)[C@H]2CCC=NN2C1=O (cyclo(I[dPiz(1,6-dehydro)][Pip][dNMeF]P[dF]))
Vasopressin V2 receptor
  IC50: 1200 nM
Oxytocin receptor
  IC50: 15 nM
Vasopressin V1a receptor
  IC50: 3500 nM

## CC[C@H](C)[C@@H]1NC(=O)[C@@H](Cc2ccccc2)NC(=O)[C@@H]2CCCN2C(=O)[C@@H](Cc2ccccc2)N(C)C(=O)[C@@H]2CCC=NN2C(=O)[C@H]2CCC=NN2C1=O (cyclo(I[dPiz(1,6-dehydro)][Piz(1,6-dehydro)][dNMeF]P[dF]))
Oxytocin receptor
  IC50: 18 nM

## CC[C@H](C)[C@@H]1NC(=O)[C@@H](Cc2c[nH]c3ccccc23)NC(=O)[C@@H]2CCCN2C(=O)[C@@H](Cc2c[nH]cn2)N(C)C(=O)[C@@H]2CCCCN2C(=O)[C@H]2CCCCN2C1=O (cyclo(I[dPip][Pip][dNMeH]P[dW]))
Vasopressin V1a receptor
  IC50: 14000 nM

## CC[C@H](C)[C@@H]1NC(=O)[C@@H](Cc2ccccc2)NC(=O)[C@@H]2CCCN2C(=O)[C@@H](Cc2ccccc2)N(C)C(=O)[C@H](C)N(C)C(=O)[C@H]2CCCCN2C1=O
Oxytocin receptor
  IC50: 2700 nM

## C[C@@H]1NC(=O)[C@@H](Cc2ccccc2)NC(=O)[C@@H]2CCCN2C(=O)[C@@H](Cc2ccccc2)N(C)C(=O)[C@@H]2CCCCN2C(=O)[C@H]2CCCCN2C1=O
Oxytocin receptor
  IC50: 30000 nM
